Measurements as given in patent US8309129B2, “Nanoparticles comprising a drug, ethylcellulose, and a bile salt” (Bend Research, Inc., priority 2007, dated 2012).
Values after ≈ are worked out from the molar mass of the structure shown. Read-outs that look alike come from different tables or passages of the source.

Tests used:
Format in all cases: physicochemical
[1] = Dynamic light scattering (DLS) of aqueous nanoparticle suspension as formed; conditions: Tables 5 and 6; valdecoxib suspension samples
Source text: The nanoparticles are small particles comprising the drug, ethylcellulose, and a bile salt. By “nanoparticles” is meant a plurality of small particles in which the average size of the particles in suspension is less than about 500 nm. By “average size” is meant the effective cumulant diameter as measured by dynamic light scattering, using for example, Brookhaven Instruments' 90Plus particle sizing instrument. By “size” is meant the diameter for spherical particles, or the maximum diameter for non-spherical particles. Preferably, the average size of the nanoparticles is less than 400 nm, more preferably less 300 nm, more preferably less than 150 nm, more preferably less than 100 nm, and most preferably less than 75 nm.
The width of the particle size distribution in suspension is given by the “polydispersity” of the particles, which is defined as the relative variance in the correlation decay rate distribution, as is known by one skilled in the art. […]
The particle size of the nanoparticles in the aqueous suspension was determined using dynamic light scattering (DLS) as follows. […] Dynamic light-scattering was measured using a Brookhaven Instruments (Holtsville, N.Y.) BI-200SM particle size analyzer with a BI-9000AT correlator. The sums of exponentials from the autocorrelation functions were analyzed using CONTIN software to extract size distributions from the samples. […]

[2] = Measurement of free drug
Experimental: In one embodiment, the compositions of the present invention are capable of improving the concentration of dissolved drug in a use environment relative to a control composition consisting essentially of the drug alone without any ethylcellulose or bile salt. In order to determine concentration enhancement in vitro, the amount of “free” drug, or solvated drug is measured. By “free” drug is meant drug which is in the form of dissolved drug or present in micelles, but which is not in the nanoparticles or any solid particles larger than 500 nm, such as precipitate. A composition of the invention provides concentration enhancement if, when administered to an aqueous use environment, it provides a free drug concentration that is at least 1.25-fold the free drug concentration provided by the control composition. Preferably, the free drug concentration provided by the compositions of the invention are at least about 1.5-fold, more preferably at least about 2-fold, and most preferably at least about 3-fold that provided by the control composition.
The amount of free drug provided by a suspension of the nanoparticles of Example 11 was measured using the following procedure. […]
The amount of free drug provided by a suspension of the nanoparticles of Example 12 was measured as follows. […]

[3] = Nanoparticle dissolution test of valdecoxib in Hank's buffer; conditions: percent of total drug released per minute, 10 μg/mL, 37° C.
Experimental: The dissolution rate of valdecoxib from nanoparticles of Example 12 was measured using the dissolution test as follows. The spray-dried composition of Example 12 were added to Hank's buffer to obtain a valdecoxib concentration of about 1 mgA/mL. The suspension was diluted to 10 μg/mL by adding 0.2 mL suspension to 20 mL buffer. The diluted suspension was placed on a shaker table in a 37° C. chamber, and aliquots were removed at 2, 5, and 10 minutes. The aliquots were centrifuged for 5 minutes at 12,000 rpm using a 30,000-dalton molecular-weight cutoff centrifuge tube filter, and 100 μL of the supernatant was added to 250 μL acetonitrile. The samples were assayed by HPLC. Crystalline drug alone was tested for comparison. The dissolution rate for nanoparticles of the invention was 3.6 times that of crystalline drug alone.

[4] = Solubility of the drug
[5] = MFD solution, fassgf or other biorelevant, read-out: solubility in MFD solution
[6] = water, read-out: solubility in water

Row | SMILES | solubility [4, 5] [µg/mL] | solubility [4, 6] [µg/mL] | other results
1 | Cc1onc(-c2ccccc2)c1-c1ccc(S(N)(=O)=O)cc1 [Crystalline Valdecoxib, valdecoxib] |  |  | Average Particle Size [1]: >1000 nm; Free Drug ([2]; Table 5, aqueous suspension prior to spray-drying, 100,000-dalton cutoff filtrate): 11 µg/mL; Free Drug ([2]; Table 6, spray-dried composition in dextrose solution, 100,000-dalton cutoff filtrate): 11 µg/mL; Dissolution Rate [3]: 5.0 %/min
2 | Cc1ccc(-c2cc(C(F)(F)F)nn2-c2ccc(S(N)(=O)=O)cc2)cc1 [Drug 1, 4-[5-(4-methylphenyl)-3-(trifluoromethyl)-1H-pyrazol-1-yl]benzenesulfonamide] | ~40 (≈ 105 µM) |  | 
3 | Cc1onc(-c2ccccc2)c1-c1ccc(S(N)(=O)=O)cc1 [Drug 2, 4-(5-methyl-3-phenyl-4-isoxazolyl)benzenesulfonamide] |  | ~10 (≈ 31.8 µM) | 
4 | CCOC(=O)N1c2ccc(C(F)(F)F)cc2[C@@H](N(Cc2cc(C(F)(F)F)cc(C(F)(F)F)c2)C(=O)OC)C[C@H]1CC [Drug 3, [2R,4S]4-[(3,5-bis-trifluoromethyl-benzyl)-methoxycarbonyl-amino]-2-ethyl-6-trifluoromethyl-3,4-dihydro-2H-quinoline-1-carboxylic acid ethyl ester] |  | < 0.1 | 
5 | CC[C@@H]1C[C@H](N(Cc2cc(C(F)(F)F)cc(C(F)(F)F)c2)C(C)=O)c2cc(C(F)(F)F)ccc2N1C(=O)OC(C)C [Drug 4, [2R,4S]4-[acetyl-(3,5-bis-trifluoromethyl-benzyl)-amino]-2-ethyl-6-trifluoromethyl-3,4-dihydro-2H-quinoline-1-carboxylic acid isopropyl ester] | ~11 (≈ 18.4 µM) |  | 
